Results as given in patent US12714712B2, “Combination therapy with a mutant IDH inhibitor and a Bcl-2 inhibitor” (Eli Lilly and Company, priority 2020, dated 2026).
“And” between values parts separate entries of the source, which are not always exact repeats. Identical values can stand only once.

Experiments:
[1] = target: T1, mutant IDH1 (IDH1 R132H) in MOLM14 R132 cell line construct (Homo sapiens, UniProt O75874, R132H); test: 2-HG Inhibition Assay (LC-MS of cell culture supernatant); format: cell-based; conditions: for 2-HG: 4 days, MOLM14 R132, doxycycline-induced, culture media
T1 construct: FLAG; host or cells: MOLM14 human leukemia cells (lentiviral, doxycycline-induced)
From the text: MOLM14 wild-type human leukemia cells and a MOLM14 R132 construct cell line are generated by lentiviral transfection of MOLM14 cells using IDH1 WT (doxycycline inducible) pSLIK-IDH1-FLAG (Addgene Plasmid #66802) and IDH1 R132H (doxycycline inducible) pSLIK-IDH1-R132H-FLAG (Addgene Plasmid #66803), and is kindly provided by Dr. Jean-Emmanuel Sarry (Centre de Recherches en Cancérologie de Toulouse, UMR1037, Inserm, Université de Toulouse 3 Paul Sabatier, Toulouse, France; bioRxiv 749580; doi.org/10.1101/749580). MOLM14-WT and MOLM14-R132 mutant cells are seeded in 6 well plates (lx 10^6/well) in 5 ml of complete RPMI medium containing 10% FBS (Sigma) and 1× Pen/Strep (Sigma). After induction with 2 μg/ml doxycycline, the cells are incubated in 37 degree for 4 days.
Cells are seeded in 12 wells plates (100,000 cells/well) in 1 mL, in triplicate. Cells are treated with 2 μg/ml doxycycline to induce IDH1 expression, then treated with DMSO, 0.1 or 1 μM Compound A, and incubated at 37 degrees C. for 4 days.
65 μL of media are collected and centrifuged, and 60 μL of the supernatant media are collected and frozen at −80 degrees C.
LCMS 2-HG Metabolite Analysis.
The effects of IDH1 inhibition on the concentrations of total 2-HG and (α-KG) are determined by liquid chromatography-mass spectrometry (LC-MS) analysis of cell culture supernatant. Calibration curves are prepared by spiking 2-HG and α-KG into cell culture media. The method utilizes derivatization with O-benzylhydroxylamine prior to analysis by LC-MS. Ten microliters of each standard or sample is placed into a deep-well 96-well plate and combined with 100 μL of internal standard solution containing 10 μM d5-2-hydroxyglutarate and 10 μM d6-α-KG. 50 μL of 1 M O-benzylhydroxylamine in pyridine buffer (8.6% pyridine, pH 5) and 50 μL of 1 M N-(3-dimethylaminopropyl)-N-ethylcarbodiimide hydrochloride (EDC) in pyridine buffer is added to each sample. The derivatization reaction proceeds at room temperature for one hour. […] Analyte concentrations for the unknowns are back-calculated from the calibration curves.

[2] = system: MOLM14 wild-type and MOLM14 R132 cells; test: Cell Viability Assay (Annexin V/DAPI flow cytometry: % viable cells and % apoptosis); format: cell-based, human
Experimental: MOLM14 wild-type and MOLM14 R132 cells are treated with 2 μg/ml doxycycline to induce expression of IDH1 WT and IDH1-R132H and then incubated at 37 degrees C. for 4 days. Cells are seeded in 4 (12 wells) plates at 10,000 cells/well in 1 mL growth media containing 2 ug/mL doxycycline.
Cells are treated with: DMSO (in triplicate), or with Compound A at 0, 125, 250, 500, 1000 nM (each in triplicate) as described in the following: After the initial induction described above, 0.5 mL media with 1× of doxycycline plus 1× Compound A or DMSO is added and incubated for 3 days. After the 3 days, another 0.5 mL aliquot of fresh media with 1×doxycyline plus 1×compound A or DMSO is added and incubated for 3 further days. Venetoclax (0, 25, 50, 100, 200 nM) is then added as a single agent or in combination with 1× Compound A. Two days later, cells are collected in flow cytometry filtered tubes, and processed for flow cytometry. Cells are washed with Annexin V Binding Buffer (ABB, 2 mL) [1 M Hepes buffer (10 mL), 5 M NaCl (28 mL), 1 M CaCl2 (5 mL), H2O (957 mL)], and then centrifuged at 1500 rpm for 5 min. Cells are stained with ABB (50 μL), with APC Annexin V Antibody (1 μL, Biolegend cat #640941), and kept in the dark for 20 minutes. Cells are washed with ABB (2 mL) and centrifuged at 1500 rpm for 5 min. DAPI (Invitrogen cat #D3571) and counting beads (Invitrogen cat #C36950) are added in Annexin V binding buffer [DAPI (5 μL, 2 μg/mL)+counting beads (5 μL (520,000 beads per 50 μL))+ABB (150 μL)] in a total volume 160 μL/tube, then analyzed with a Gallios flow cytometer (Beckman Coulter). Cells collection is stopped when counting beads reach 250 beads per sample. Kalusa software is used for analysis. The percentage of gated Annexin V-negative/DAPI-negative cells constitutes % viable cells, while the percentage of Annexin V-positive cells constitutes % apoptosis.

[3] = system: AML-PDX; test: AML-PDX Model; format: in vivo, NSG mice; conditions: peripheral blood, following 6 weeks of treatment, individual animals
Experimental: Male NSG mice (6-9 weeks of age, The Jackson Laboratory) are irradiated with 250 cGy and on the next day, injected intravenously with AML-PDX (1×10^6 cells/100 μL). Peripheral blood is collected via the retro-orbital route and processed to measure hCD45+ cells by flow cytometry to confirm the establishment of leukemia. When leukemia engraftment reaches more than 1%, mice are randomly grouped for treatment with vehicle, Compound A (10 mg/kg, daily oral gavage), venetoclax (50 mg/kg, oral gavage for 2 weeks on and 1 week off (2 cycles)) or the combination of venetoclax (50 mg/kg, oral gavage for 2 weeks on and 1 week off (2 cycles)) and Compound A (10 mg/kg, daily oral gavage). Additional dosing may be employed beyond the 2 cycles stated above based on the assessment of the level of residual disease remaining following 6 weeks of treatment. Peripheral blood is collected once every two weeks via the retro-orbital route and processed to measure leukemia burden (% hCD33+/hCD45+ cells) by flow cytometry, and to measure differentiation (% hCD14+ cells percentage out of total hCD45+ cells)). Sixty-five μL stain/wash buffer (5% heat inactivated (HI)-FBS in DPBS) is added per tube, mixed up and down 3 to 4 times by pipette, and 100 μL of the blood suspension is transferred to 5 mL polypropylene tubes. The stains are added according to the manufacturer's instructions (anti-human CD33-APC (BD Biosciences cat #551378), anti-human CD14-PE-Cy7 (BD Biosciences cat #557742), anti-human CD45-APC-Cy7 (BD Biosciences cat #557833). The samples are incubated for 30 minutes at room temperature, protected from light. After the incubation, 1.5 mL 1× BD Lyse/Fix buffer (37° C., (BD #558049)) is added to each sample and incubated for 12 minutes at room temperature. The tubes are then centrifuged at 1500 RPMI for 5 minutes. BD Lyse/Fix solution is aspirated and the cell pellet washed with stain/wash buffer 2 times. Fixed cells are then resuspended in 200 μL stain/wash buffer then transferred to filtered flow tubes. Samples are analyzed on a Gallios Flow cytometer (Beckman, Texas) using standard flow cytometry principles and technique. Population gating and data analysis of percent population are performed in the Flow Jo software.

[4] = system: mutant IDH1; conditions: from WO 2018/111707 A1; cited from earlier work
[5] = Compound A 10 mg/kg daily oral gavage, 10 mg/kg
[6] = venetoclax 50 mg/kg oral gavage, 2 weeks on and 1 week off (2 cycles)

T1 sequence (O75874 whole entry R132H): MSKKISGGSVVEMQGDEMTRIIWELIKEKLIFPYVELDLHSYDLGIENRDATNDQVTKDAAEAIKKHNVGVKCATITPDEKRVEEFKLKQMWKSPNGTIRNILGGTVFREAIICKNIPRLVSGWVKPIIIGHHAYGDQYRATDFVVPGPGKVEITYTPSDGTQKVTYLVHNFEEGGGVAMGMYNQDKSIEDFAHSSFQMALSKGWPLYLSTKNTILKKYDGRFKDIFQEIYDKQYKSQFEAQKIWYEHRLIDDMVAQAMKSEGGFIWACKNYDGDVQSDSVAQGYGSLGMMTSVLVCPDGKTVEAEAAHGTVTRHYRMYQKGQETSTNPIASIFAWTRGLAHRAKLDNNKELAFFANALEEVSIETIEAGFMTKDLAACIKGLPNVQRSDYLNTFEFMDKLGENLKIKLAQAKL

SMILES: C=CC(=O)N1CCN([C@@H](CC2CC2)c2ccc([C@H](C)Nc3ncc4c(n3)N(CC)C(=O)OC4)cc2)CC1 [Compound A, 7-[[(1S)-1-[4-[(1S)-2-cyclopropyl-1-(4-prop-2-enoylpiperazin-1-yl)ethyl]phenyl]ethyl]amino]-1-ethyl-4H-pyrimido[4,5-d][1,3]oxazin-2-one]
- 2-HG ([1]; 0.1 μM Compound A): 3.369 µM and 3.044 µM and 3.488 µM
- 2-HG ([1]; 1 μM Compound A): 3.578 µM and 3.199 µM and 3.378 µM
- 2-HG production by mutant IDH1 (in words) ([1]; MOLM14 R132 cell line construct): inhibits 2-HG production
- % Annexin V + as a measure of apoptosis ([2]; Compound A 125 nM alone): 5.56% and 4.3% and 5.12%
- % Cell Viability ([2]; Compound A 125 nM alone): 95.14% and 94.27%
- % Annexin V + as a measure of apoptosis ([2]; Compound A 250 nM alone): 6.18% and 4.95% and 4.92%
- % Cell Viability ([2]; Compound A 250 nM alone): 94.27% and 94.41%
- % Annexin V + as a measure of apoptosis ([2]; Compound A 500 nM alone): 5.82% and 5.23% and 5.19%
- % Cell Viability ([2]; Compound A 500 nM alone): 93.92% and 94.15%
- % Annexin V + as a measure of apoptosis ([2]; Compound A 1000 nM alone): 7.2% and 5.51% and 7.52%
- % Cell Viability ([2]; Compound A 1000 nM alone): 93.98% and 91.68%
- viability at 0.125 µM ([2]; Homo sapiens, MOLM-14, Compound A 125 nM alone): 93.7%
- viability at 0.25 µM ([2]; Homo sapiens, MOLM-14, Compound A 250 nM alone): 93.3%
- viability at 0.5 µM ([2]; Homo sapiens, MOLM-14, Compound A 500 nM alone): 93.7%
- viability at 1 µM ([2]; Homo sapiens, MOLM-14, Compound A 1000 nM alone): 92%
- AML cell differentiation (% hCD14+ of hCD45+) [3, 5]: 44.1% and 58.3% and 63.6% and 64.1% and 51.7% and 58.9%
- Leukemic burden (% hCD33+hCD45+ of total white cells) [3, 5]: 87.8% and 88.5% and 51.5% and 65.6% and 85.1% and 81.9%
- 2-HG production (in words) [4]: selectively inhibits 2-HG production
- α-KG levels (in words) [4]: without affecting α—KG levels

SMILES: CC1(C)CCC(CN2CCN(c3ccc(C(=O)NS(=O)(=O)c4ccc(NCC5CCOCC5)c([N+](=O)[O-])c4)c(Oc4cnc5[nH]ccc5c4)c3)CC2)=C(c2ccc(Cl)cc2)C1 [Venetoclax, venetoclax, reference compound]
- viability at 0.025 µM ([2]; Homo sapiens, MOLM-14, 48 h, venetoclax 25 nM alone, 2 days): 76.1%
- viability at 0.05 µM ([2]; Homo sapiens, MOLM-14, 48 h, venetoclax 50 nM alone, 2 days): 76.9%
- viability at 0.1 µM ([2]; Homo sapiens, MOLM-14, 48 h, venetoclax 100 nM alone, 2 days): 70.4%
- viability at 0.2 µM ([2]; Homo sapiens, MOLM-14, 48 h, venetoclax 200 nM alone, 2 days): 55.2%
- % Annexin V + as a measure of apoptosis ([2]; venetoclax 25 nM alone): 19.1% and 15.93% and 19.16%
- % Cell Viability ([2]; venetoclax 25 nM alone, 2 days): 81.78% and 77.84%
- % Annexin V + as a measure of apoptosis ([2]; venetoclax 50 nM alone): 18.22% and 16.34% and 17.15%
- % Cell Viability ([2]; venetoclax 50 nM alone, 2 days): 80.63% and 78.78%
- % Annexin V + as a measure of apoptosis ([2]; venetoclax 100 nM alone): 24.62% and 18.98% and 22.98%
- % Cell Viability ([2]; venetoclax 100 nM alone, 2 days): 73.78%
- % Annexin V + as a measure of apoptosis ([2]; venetoclax 200 nM alone): 41.67% and 35.73% and 41.22%
- % Cell Viability ([2]; venetoclax 200 nM alone, 2 days): 59.27% and 56.31%
- AML cell differentiation (% hCD14+ of hCD45+) [3, 6]: 37.7% and 26% and 40.7% and 32.6%
- Leukemic burden (% hCD33+hCD45+ of total white cells) [3, 6]: 10.1% and 63% and 14.1% and 54.9%
